Reference: patent US11000033B2, “Ketone or oxime compound, and herbicide” (NISSAN CHEMICAL CORPORATION, priority 2014, dated 2021)

Tests used:
Assay type in all cases: in vivo
soybean = assay: Test Example 4: effect on crop by soil treatment (symbol d); settings: for d: soybean, effect grade on crop: 320 g/ha; for d: soybean, effect on crop grade: application herbicide amount 320 g/ha
Outline: (§1)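 Plants grew in a 25° C. to 30° C. greenhouse after spot-sowing of seeds, including beet, rapeseed, wheat and rice, into sterilized diluvial soil under roughly 1.5 cm of cover soil.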

Monochoria vaginalis [1] = assay: Test Example 2: herbicidal activity, application during weed generation in submerged conditions (symbol C); settings: Table 23; application herbicide amount 320 g/ha; grade 0-5 by criteria of Test Example 1
Outline: (§2)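 Read-out: herbicidal effect on each species rated on a visual scale 3 weeks after treatment. Plants were raised together from seed in flooded alluvial soil (4 cm water) at 25° C. to 30° C. and treated at one to two leaves by water-surface application of diluted emulsion.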

rapeseed = assay: Test Example 5: effect on crop by foliage application, plastic box (symbol g); settings: 320 g/ha, 3 weeks after application
Outline: (§3)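 Greenhouse culture at 25° C. to 30° C. followed spot-like sowing into sterilized diluvial soil, with seed covered by roughly 1.5 cm of soil.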

[2] = system: directly sowed rice plant; assay: Test Example 3: effect on crop by foliage application, Wagner pot (symbol b); settings: application herbicide amount 320 g/ha
Outline: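 Plants are raised from seed in flooded paddy conditions: water stands 0.1–0.5 cm over alluvial soil, and the pot is kept in a greenhouse at 25–30 °C. Species sown are barnyardgrass (E. crus-galli var. crus-galli), Leptochloa chinensis, Cyperus difformis and rice.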

Amaranthus retroflexus = assay: Test Example 5: herbicidal effect by foliage application, plastic box (symbol N); settings: 320 g/ha, 3 weeks after application
Outline: (§4)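 Leaf-applied emulsion, water-diluted to a preset herbicide dose, on two-week-old seedlings raised in a 25° C. to 30° C. greenhouse; injury rated at 3 weeks using earlier criteria.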

wheat [3] = assay: Test Example 5: effect on crop by foliage application, plastic box (symbol e); settings: 320 g/ha, 3 weeks after application
Outline: as §3

Monochoria vaginalis [4] = assay: Test Example 1: herbicidal activity, application before weed generation in submerged conditions (symbol C); settings: application herbicide amount 320 g/ha
Outline: (§5)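 Greenhouse growth at 25–30 °C lasted 3 weeks after treatment, when each weed was graded 0–5 by herbicidal ratio. Treatment was a diluted emulsion applied to the water surface of 4 cm-submerged alluvial soil on the sowing day.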

wheat [5] = assay: Test Example 4: effect on crop by soil treatment (symbol e); settings: for e: wheat, effect grade on crop: 320 g/ha; for e: wheat, effect on crop grade: application herbicide amount 320 g/ha
Outline: as §1

Scirpus juncoides = assay: Test Example 1: herbicidal activity, application before weed generation in submerged conditions (symbol B); settings: application herbicide amount 320 g/ha
Outline: as §5

Avena fatua = assay: Test Example 5: herbicidal effect by foliage application, plastic box (symbol I); settings: 320 g/ha, 3 weeks after application
Outline: as §4

Lolium multiflorum Lam. = assay: Test Example 4: herbicidal effect by soil treatment (symbol K)
Outline: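 Seeds were sown in sterilized diluvial soil, covered with about 1.5 cm of soil, and the soil surface was sprayed with a water-diluted emulsion of the compound at a predetermined rate. Plants grew in a greenhouse at 25° C. to 30° C.; effects were scored visually 3 weeks after application.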

Veronica persica = assay: Test Example 5: herbicidal effect by foliage application, plastic box (symbol R); settings: 320 g/ha, 3 weeks after application
Outline: as §4

beet = assay: Test Example 4: effect on crop by soil treatment (symbol f); settings: for f: beet, effect grade on crop: 320 g/ha; for f: beet, effect on crop grade: application herbicide amount 320 g/ha
Outline: as §1

[6] = system: Echinochloa oryzacola Vasing.; assay: Test Example 2: herbicidal activity, application during weed generation in submerged conditions (symbol A); settings: Table 23; application herbicide amount 320 g/ha; grade 0-5 by criteria of Test Example 1
Outline: as §2

[7] = application herbicide amount 320 g/ha

Compound	d: soybean, effect grade on crop (soybean)	Herbicidal effect grade, C: Monochoria vaginalis (Monochoria vaginalis [1])	g: rapeseed, effect on crop grade (rapeseed)	effect on crop b (directly sowed rice plant), grade 0-5 [2]	N: Amaranthus retroflexus, herbicidal effect grade (Amaranthus retroflexus)	e: wheat, effect on crop grade (wheat [3])	Herbicidal effect grade, C: Monochoria vaginalis (Monochoria vaginalis [4])	e: wheat, effect grade on crop (wheat [5])	Herbicidal effect grade, B: Scirpus juncoides (Scirpus juncoides)	I: Avena fatua, herbicidal effect grade (Avena fatua)	K: Lolium multiflorum Lam., herbicidal effect grade (Lolium multiflorum Lam.; 320 g/ha)	R: Veronica persica, herbicidal effect grade (Veronica persica)	f: beet, effect grade on crop (beet)	Herbicidal effect grade, A: Echinochloa oryzacola Vasing. [6]	d: soybean, effect on crop grade (soybean)	e: wheat, effect on crop grade (wheat [5])	K: Lolium multiflorum Lam., herbicidal effect grade (Lolium multiflorum Lam.; [7])	f: beet, effect on crop grade (beet)	also measured
CC(=O)C(C(C)=O)C1CC(O)=C(c2c(C)cc(C)cc2C)C1=O (centres unmarked) [2-002]	0 (Herbicidal ratio of 5% or lower (almost no effect))	0 (Herbicidal ratio of 5% or lower (almost no effect))	3 (Herbicidal ratio of 40% or higher and lower than 70%)	0 (Herbicidal ratio of 5% or lower (almost no effect))	0 (Herbicidal ratio of 5% or lower (almost no effect))	0 (Herbicidal ratio of 5% or lower (almost no effect))	0 (Herbicidal ratio of 5% or lower (almost no effect))	0 (Herbicidal ratio of 5% or lower (almost no effect))	0 (Herbicidal ratio of 5% or lower (almost no effect))	1 (Herbicidal ratio of 5% or higher and lower than 20%)	0 (Herbicidal ratio of 5% or lower (almost no effect))	1 (Herbicidal ratio of 5% or higher and lower than 20%)	0 (Herbicidal ratio of 5% or lower (almost no effect))	0 (Herbicidal ratio of 5% or lower (almost no effect))	–	–	–	–	–
CCOC(=O)C(C(=O)C(C)C)C1CC(O)=C(c2c(C)cc(C)cc2C)C1=O (centres unmarked) [2-009]	–	0 (Herbicidal ratio of 5% or lower (almost no effect))	0 (Herbicidal ratio of 5% or lower (almost no effect))	1 (Herbicidal ratio of 5% or higher and lower than 20%)	0 (Herbicidal ratio of 5% or lower (almost no effect))	0 (Herbicidal ratio of 5% or lower (almost no effect))	0 (Herbicidal ratio of 5% or lower (almost no effect))	–	0 (Herbicidal ratio of 5% or lower (almost no effect))	0 (Herbicidal ratio of 5% or lower (almost no effect))	–	0 (Herbicidal ratio of 5% or lower (almost no effect))	–	0 (Herbicidal ratio of 5% or lower (almost no effect))	0 (Herbicidal ratio of 5% or lower (almost no effect))	0 (Herbicidal ratio of 5% or lower (almost no effect))	0 (Herbicidal ratio of 5% or lower (almost no effect))	0 (Herbicidal ratio of 5% or lower (almost no effect))	–
C=CCOC(=O)OC1=C(c2c(C)cc(C)cc2C)C(=O)C(CC(C)=NOC)C1 (centres unmarked) [1-146]	0 (Herbicidal ratio of 5% or lower (almost no effect))	4 (Herbicidal ratio of 70% or higher and lower than 90%)	–	5 (Herbicidal ratio of 90% or more (almost completely withered))	–	–	1 (Herbicidal ratio of 5% or higher and lower than 20%)	5 (Herbicidal ratio of 90% or more (almost completely withered))	5 (Herbicidal ratio of 90% or more (almost completely withered))	–	5 (Herbicidal ratio of 90% or more (almost completely withered))	–	3 (Herbicidal ratio of 40% or higher and lower than 70%)	5 (Herbicidal ratio of 90% or more (almost completely withered))	–	–	–	–	g: rapeseed, effect on crop (criteria 0-5) (rapeseed): 5 (Herbicidal ratio of 90% or more (almost completely withered)); N: Amaranthus retroflexus, herbicidal effect (criteria 0-5) (Amaranthus retroflexus): 0 (Herbicidal ratio of 5% or lower (almost no effect)); e: wheat, effect on crop (criteria 0-5) (wheat [3]): 5 (Herbicidal ratio of 90% or more (almost completely withered)); I: Avena fatua, herbicidal effect (criteria 0-5) (Avena fatua): 5 (Herbicidal ratio of 90% or more (almost completely withered)); R: Veronica persica, herbicidal effect (criteria 0-5) (Veronica persica): 3 (Herbicidal ratio of 40% or higher and lower than 70%)
CON=C(C)CC1CC(O)=C(c2c(C)cc(-c3ccc(C)cc3)cc2C)C1=O (mixture of isomers) [6-018]	–	3 (Herbicidal ratio of 40% or higher and lower than 70%)	3 (Herbicidal ratio of 40% or higher and lower than 70%)	5 (Herbicidal ratio of 90% or more (almost completely withered))	0 (Herbicidal ratio of 5% or lower (almost no effect))	2 (Herbicidal ratio of 20% or higher and lower than 40%)	4 (Herbicidal ratio of 70% or higher and lower than 90%)	–	5 (Herbicidal ratio of 90% or more (almost completely withered))	4 (Herbicidal ratio of 70% or higher and lower than 90%)	–	4 (Herbicidal ratio of 70% or higher and lower than 90%)	–	5 (Herbicidal ratio of 90% or more (almost completely withered))	0 (Herbicidal ratio of 5% or lower (almost no effect))	0 (Herbicidal ratio of 5% or lower (almost no effect))	5 (Herbicidal ratio of 90% or more (almost completely withered))	0 (Herbicidal ratio of 5% or lower (almost no effect))	–
